The test system of one data set is SH-SY5Y cells. In words: MNNG-induced parthanatic cell death in SH-SY5Y cells (Alamar blue cell viability). The data set is classed as cell-based. The settings on record: for inhibition of MNNG-induced parthanatic cell death: 50 μM MNNG for 15 min, viability after 24 h; for IC50: Homo sapiens, SH-SY5Y, read-out: IC50, MNNG-induced parthanatic cell death. From the text: We developed an assay to screen for PAAN/MIF nuclease inhibitors. Single-stranded PAAN/MIF nuclease DNA substrate (FIG. 10A) was amine modified on the 5′ end and immobilized on a plate. Hybridization with a biotin-labeled complementary oligonucleotide followed by addition of streptavidin conjugated horseradish peroxidase enzyme (HRP) leads to retention of HRP on the surface within each well in the presence of intact PAAN/MIF nuclease DNA substrate, which can be quantitatively detected through colorimetric change at 450 nm using the HRP substrate 3,3′,5,5′-tetramethylbenzidine (TMB). In the presence of WT PAAN/MIF, there is reduced signal, indicative of cleavage of the PAAN/MIF nuclease substrate, while the signal is not attenuated without recombinant PAAN/MIF (FIGS. 1 and 10B). […] Thus, the rapafucin library containing 45,000 macrocyclic compounds in 3,000 pools of 15 compounds was screened using this assay. […] Several pools were identified that inhibit PAAN/MIF nuclease activity from the primary screen (FIG. 4A). […] Nine pools of compounds were identified that both inhibit PAAN/MIF cleavage of the substrate and protect against MNNG-induced parthanatic cell death by greater than 70% (FIG. 10D). […] Next, the 90 individual compounds in the 6 pools were synthesized and further assessed for inhibition of PAAN/MIF nuclease activity and MNNG-induced parthanatic cell death. Among them 12 compounds (compounds 16-18, 26-28, 41, 56, 66, 67, 76, and 77) were identified that block MIF nuclease activity and MNNG-induced parthanatic cell death by greater than 60% (FIG. 10F). Dose dependence (0.1 to 1.0 μM) were assessed for the 12 compounds against MNNG-induced parthanatic cell death (FIG. 11A and Table 2) and inhibition of PAAN MIF nuclease activity against the RF (FIG. 111B) and PS30 substrates (FIG. 11C).
Cell culture, transfection, primary neuronal culture and treatment. SH-SY5Y cells (ATCC) were cultured in DMEM containing 10% fetal bovine serum and penicillin/streptomycin at 37° C. under 5% C02. The cells were transfected using PolyFect reagent (Qiagen). Parthanatos was induced by the treatment of 50 μM MNNG for 15 min in SH-SY5Y cells. ABT-888 or PAAN/MIF inhibitors were pretreated with indicated concentration 1 h before MNNG treatment and cell death were assessed after 24 h. Primary cortical neurons from WT, PAAN/MIF KO, E22Q KI or P1G KI embryos were prepared as previously described See Kam et al. (2018) Science 362:eaat8407. Briefly, the cortex was dissected and cultured at embryonic day 16 in neurobasal media supplemented with B-27, 0.5 mM L-glutamine, penicillin and streptomycin (Invitrogen). Primary neurons were infected with AAV2-control, AAV2-PAAN/MIF WT, AAV2-PAAN/MIF E22Q, AAV2-PAAN/MIF E22A or AAV2-MIF P1G (ViGene Biosciences) at days in vitro (DIV) 4-5. ABT-888 or PAAN/MIF inhibitors were applied to neurons 1 h before α-syn PFF treatment. The neuron growth medium was replaced with fresh medium alone or including inhibitors every 3-4 days. α-syn PFF was added at DIV 7 and further incubated for indicated times followed by the cell death assay or biochemical experiments.
Cell death and viability assessment. Primary cultured cortical neurons were treated with 5 μg/ml of α-syn PFF for 14 days and cell death was determined by staining of all nuclei with 7 μM Hoechst 33342 and dead cell nuclei with 2 μM propidium iodide (PI) (Invitrogen). The numbers of total and dead cells were counted with the Axiovision 4.6 software (Carl Zeiss). Cell viability was determined by fluorescence at an excitation wavelength 570 nm and an emission wavelength 585 nm using Alamar Blue (Invitrogen). […]

Data set [1] concerns HeLa cells or neuronal cells. As to the kind of experiment: Cell death assay of Example 3 (MNNG, alamarBlue; protection against parthanatos, Table 4). Format: cell-based. The note with it: 1 μM test compound, MNNG-induced cell death, alamarBlue. The procedure, abridged: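 HeLa or neuronal cells (1×10^4/well) were pretreated 1 h at 37° C with 1 μM compound, exposed to MNNG for 15 min, washed, then re-incubated 18 h with 1 μM compound. Viability was read by alamarBlue fluorescence (ex 560/em 590 nm). Cell death was expressed relative to control wells.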
(Resazurin is reduced to fluorescent resorufin, in cell work by metabolically active cells.)

A short description of data set [2]: Measurement of compounds in brain after oral gavage (HPLC-MS). The data set is classed as in vivo, C57BL/6 mice. The settings on record: oral gavage 10 mg/kg. As to the method: The concentrations of compounds in brain tissue were measured by LC/MS. […] Bars represent means±s.e.m. ***P<0.0005, two-way ANOVA followed by Tukey's post hoc test (n=3). […] Quantification of noncleaved substrate. Bars represent mean±s.e.m. ***P<0.0005, two-way ANOVA followed by Tukey's post hoc test (n=4). […] Intensity of noncleaved genomic DNA is shown in the graph. Bars represent mean±s.e.m. ***P<0.0005, two-way ANOVA followed by Tukey's post hoc test (n=4).
Measurement of compound 121 in brain. Compound 56, compound 77, and compound 121 were resuspended in a vehicle solution and were administered at 10 mg/kg by oral gavage. After 2 h, mice were perfused with PBS and whole brain was isolated, weighed and grounded with a pestle to a very fine powder with liquid nitrogen. Then, 2-folds of acetonitrile were added to brain tissue sample and the mixture was centrifuged at 14,000 rpm, 4° C. for 10 m. The supernatant was used for analysis. The concentration of compounds in brain tissue were measured using HPLC-MS on a C-18 reverse phase HPLC column. Separations were achieved using a linear gradient of buffer B from 40% to 95% in A (A=0.1% formic acid in H20; B=0.1% formic acid in CH3CN) at a flow rate of 1 ml/min. Intracerebroventricular (ICV) injected brain samples at 0.5, 1, 2, 4 or 8 μM concentration were used for the standard curve.

Broadly, the IC50 is the midpoint of a concentration-inhibition curve.

Regarding `COc1ccc(CC[C@H]2OC(=O)[C@@H]3CCCCN3C(=O)C(=O)C(C)(C)COC(=O)C=CCCN(C)C(=O)[C@@H]3CCCN3C(=O)[C@H](COC(C)(C)C)N(C)C(=O)C(c3ccccc3)NC(=O)[C@H](C)N(C)C(=O)COc3cc(F)cc2c3)cc1OC` (mixture of isomers) [compound 121], in the data set on SH-SY5Y cells, the “inhibition of MNNG-induced parthanatic cell death” value is recorded as “blocked” and the IC50 was 280 nM. The “protection against MNNG-induced parthanatic cell death in PAAN/MIF mutant cells” value with SH-SY5Y cells (PAAN/MIF KO SH-SY5Y cells expressing L61A, 60-63A or N72A, 1 μM) is on record as “significantly reduced”. Besides, in data set [1], the “(%) inhibition of cell death” value is listed as 90.1%. Moreover, in data set [2] (2 h), the “levels detected in the brain relative to compound 56” value is listed as roughly 3 fold.

For `COc1ccc(CC[C@H]2OC(=O)[C@@H]3CCCCN3C(=O)C(=O)C(C)(C)COC(=O)C=CCCN(C)C(=O)[C@@H]3CCCN3C(=O)[C@H](COC(C)(C)C)N(C)C(=O)C(c3ccccc3)NC(=O)CN(C)C(=O)COc3cccc2c3)cc1OC` (stereo partly shown) [compound 41], the “inhibition of MNNG-induced parthanatic cell death” value with SH-SY5Y cells is listed as “prominently blocked”. The “(%) inhibition of cell death” value in data set [1] (1 µM) was 80.6%.

For the molecule `COc1ccc(CC[C@H]2OC(=O)[C@@H]3CCCCN3C(=O)C(=O)C(C)(C)COC(=O)C=CCCN(C)C(=O)[C@@H]3CCCN3C(=O)[C@H](COC(C)(C)C)N(C)C(=O)C(c3ccccc3)NC(=O)[C@H](C)N(C)C(=O)COc3cccc2c3)cc1OC` (stereo partly shown) [compound 56], in the data set with SH-SY5Y cells, the “inhibition of MNNG-induced parthanatic cell death” value is on record as “prominently blocked” and the IC50 amounted to 520 nM. Besides, in data set [1] (1 µM), the “(%) inhibition of cell death” value is 81.5%. Moreover, the concentration at 2 h in data set [2] (C57BL/6, mouse, brain, read-out: achievable concentration in brain) is less than 500 nM. Also, the “ability to cross the blood brain barrier (BBB)” value in data set [2] (2 h) is given as “crossed the BBB”.

Regarding `COc1ccc(CC[C@H]2OC(=O)[C@@H]3CCCCN3C(=O)C(=O)C(C)(C)COC(=O)C=CCCN(C)C(=O)CNC(=O)[C@H](C(C)C)N(C)C(=O)[C@@H](Cc3ccccc3)NC(=O)[C@H](CC(C)C)N(C)C(=O)CCC(=O)Nc3cccc2c3)cc1OC` [compound 76], the “inhibition of MNNG-induced parthanatic cell death” value in the data set with SH-SY5Y cells is “prominently blocked”. The “(%) inhibition of cell death” value in data set [1] is 79.2%.

In the case of `COc1ccc(CC[C@H]2OC(=O)[C@@H]3CCCCN3C(=O)C(=O)C(C)(C)COC(=O)C=CCCN(C)C(=O)[C@H](C)NC(=O)[C@H](C(C)C)N(C)C(=O)[C@@H](Cc3ccccc3)NC(=O)[C@H](CC(C)C)N(C)C(=O)CCC(=O)Nc3cccc2c3)cc1OC` [compound 77], the “inhibition of MNNG-induced parthanatic cell death” value with SH-SY5Y cells is given as “prominently blocked”. The “(%) inhibition of cell death” value in data set [1] came to 77.9%. Moreover, the “ability to cross the blood brain barrier (BBB)” value in data set [2] (2 h) is given as “only compound 56 crossed the BBB”.

On to `COc1ccc(CC[C@H]2OC(=O)[C@@H]3CCCCN3C(=O)C(=O)C(C)(C)COC(=O)C=CCCN(C)C(=O)[C@@H]3CCCN3C(=O)[C@H](CO)N(C)C(=O)C(c3ccccc3)NC(=O)[C@H](C)N(C)C(=O)COc3cccc2c3)cc1OC` (stereo partly shown) [compound 97], for which, in the data set with SH-SY5Y cells, the “inhibition of MNNG-induced parthanatic cell death” value was “has no effect”. Also, the “(%) inhibition of cell death” value in data set [1] was found to be 41.4%.

These data come from US20220372014A1, “NEUROPROTECTIVE COMPOUNDS AND METHODS OF USE THEREOF” (The Johns Hopkins University, priority 2019, published 2022).
